Among the data in ChEMBL document CHEMBL4673380, “Novel Pyrimidinones as SHP2 Antagonists for Treating Cancer” (ACS Med Chem Lett, 2021) are IC50 values, retold here.

Structures are written as SMILES.

Assay [1] addresses T1, Tyrosine-protein phosphatase non-receptor type 11 (Homo sapiens, UniProt Q06124).
T1 sequence (Q06124 whole entry): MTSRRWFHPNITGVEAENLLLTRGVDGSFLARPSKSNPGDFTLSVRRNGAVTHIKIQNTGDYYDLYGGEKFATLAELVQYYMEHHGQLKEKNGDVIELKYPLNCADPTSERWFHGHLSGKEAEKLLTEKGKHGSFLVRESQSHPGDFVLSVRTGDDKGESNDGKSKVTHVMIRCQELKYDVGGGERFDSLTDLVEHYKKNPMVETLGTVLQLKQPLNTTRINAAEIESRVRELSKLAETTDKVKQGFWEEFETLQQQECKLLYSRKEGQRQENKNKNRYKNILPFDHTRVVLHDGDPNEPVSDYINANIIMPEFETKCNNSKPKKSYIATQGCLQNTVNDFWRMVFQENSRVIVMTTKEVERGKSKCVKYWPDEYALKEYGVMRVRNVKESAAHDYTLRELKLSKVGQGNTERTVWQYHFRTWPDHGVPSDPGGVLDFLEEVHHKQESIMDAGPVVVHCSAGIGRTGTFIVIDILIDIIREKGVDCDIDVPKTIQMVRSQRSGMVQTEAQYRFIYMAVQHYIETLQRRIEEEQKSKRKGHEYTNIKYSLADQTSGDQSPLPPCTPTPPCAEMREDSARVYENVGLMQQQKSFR
The assay can be described thus: Antagonist activity at SHP2 in human KYSE520 cells assessed as inhibition of ERK1/2 phosphorylation incubated for 2 hrs. Format: cell-based.

Assay [2] has as its target T1, Tyrosine-protein phosphatase non-receptor type 11. Put plainly: Antagonist activity at recombinant human N-terminal His6-tagged full length SHP2 expressed in Escherichia coli using DiFMUP as substrate measured after 60 mins in presence of IRS1-2pY peptide by fluorescence assay.

For `Cc1c(N2CCC3(CC2)Oc2ccccc2[C@H]3N)nc(C)n(-c2cccc(Cl)c2Cl)c1=O`, the IC50 – broadly, the point on the concentration scale where inhibition reaches its midpoint – in assay [1] amounted to 6.6 nM. Regarding `Cc1c(N2CCC3(CC2)Cc2ccccc2[C@H]3N)nc(C)n(-c2cccc(Cl)c2Cl)c1=O`, the half-inhibitory concentration (IC50) in assay [1] is 2 nM.

`Cc1c(N2CCC3(CC2)Cc2ccccc2[C@H]3N)nc(C)n(-c2ccc(F)c(Cl)c2Cl)c1=O`: in assay [1], the half-inhibitory concentration (IC50) is 4 nM.

Take `Cc1c(F)ccc(-n2c(C)nc(N3CCC4(CC3)Cc3ccccc3[C@H]4N)c(C)c2=O)c1Cl`: in assay [1], the half-inhibitory concentration (IC50) is 7 nM.

As for `Cc1c(N2CCC3(CC2)Cc2ncccc2[C@@H]3N)nc(C)n(-c2cccc(Cl)c2Cl)c1=O`, the IC50 in assay [1] came to 5 nM; in assay [2], 1 nM. `Cc1nc(N2CCC3(CC2)Cc2ccccc2[C@H]3N)cc(=O)n1-c1cccc(Cl)c1Cl`: the IC50 in assay [1] was 5 nM.
